From patent publication EP4745118A1, “HYDROXAMIC ACID COMPOUND OR PHARMACEUTICALLY ACCEPTABLE SALT THEREOF, AND USE THEREOF AND PREPARATION METHOD THEREFOR” (priority 2023, dated 2025)
Values after ≈ are worked out from the molar mass of the structure shown. Where two headings read alike, the source gives them in different places.

Columns and labels:
Experiment in all cases: In vitro antibacterial activity, agar dilution method (MIC)
Assay type in all cases: cell-based
[1] = test system: Citrobacter freundii
Procedure: (§1) According to the relevant operating procedures of the Clinical Laboratory Standards Institute (CLSI) in the United States, an antimicrobial susceptibility testing was conducted using the agar dilution method. […]. The agar was allowed to solidify and set aside for later use.
(§2) The test bacteria were propagated in broth and adjusted to a turbidity of 0.5 McFarland (approximately 1-2 × 10^8 CFU/mL) using a turbidimeter before inoculation. The 0.5 McFarland bacterial solution was then diluted 10-fold in broth (approximately 1-2 × 10^7 CFU/mL). A multipoint inoculator was used to inoculate the above bacterial solution onto a series of plates containing different concentrations of drugs (with an inoculation amount of approximately 10^4 CFU per inoculation site). After incubation at a constant temperature of 35°C for 18 hours, results were observed. The minimum concentration of drugs contained in sterile growth plates was determined as the Minimal Inhibitory Concentration (MIC).

[2] = test system: Enterobacter aerogenes
Procedure: as §1, §2

[3] = test system: Escherichia coli; conditions: agar dilution, 35°C
Procedure: as §1, §2

[4] = test system: Klebsiella pneumoniae; conditions: agar dilution, 35°C
Procedure: as §1, §2

[5] = test system: Pantoea agglomerans
Procedure: as §1, §2

[6] = test system: Proteus mirabilis
Procedure: as §1, §2

[7] = test system: Proteus vulgaris
Procedure: as §1, §2

[8] = test system: Serratia marcescens
Procedure: as §1, §2

[9] = test system: Enterobacter cloacae
Procedure: According to the relevant operating procedures of the Clinical Laboratory Standards Institute (CLSI) in the United States, an antimicrobial susceptibility testing was conducted using the agar dilution method. […] The agar was allowed to solidify and set aside for later use.
as §2

[10] = test system: Shigella flexneri; conditions: 18 hours
Procedure: According to the relevant operating procedures of the Clinical Laboratory Standards Institute (CLSI) in the United States, an antimicrobial susceptibility testing was conducted using the agar dilution method. A 1920 µg/mL stock solution was serially diluted twofold with sterile water to obtain dilutions of 960, 480, 240, 120, 60, 30, 15, 7.5, 3.75, 1.88, 0.94, 0.47 µg/mL, and 1 mL of the dilution was taken respectively from the dilutions with different concentrations and added to a Petri dish, to which 14 mL of melted MH agar medium was added and mixed thoroughly, and the final concentration of the drug in the petri dish is 128, 64, 32, 16, 8, 4, 2, 1, 0.5, 0.25, 0.12, 0.06, and 0.03 µ g/mL, respectively. The agar was allowed to solidify and set aside for later use.
as §2

[11] = test system: Pseudomonas aeruginosa
Procedure: as §1, §2

[12] = ATCC43864, Citrobacter freundii ATCC 43864, agar dilution, 35°C, 18 hours, read-out: MIC
[13] = Klebsiella aerogenes, ATCC13048, Enterobacter aerogenes ATCC 13048, agar dilution, 35°C, 18 hours, read-out: MIC
[14] = Escherichia coli, 18 h, Escherichia coli 13-43 (mcr-1), 18 hours, read-out: MIC
[15] = Escherichia coli, 18 h, Escherichia coli 17-R28 (CRE, NDM-1-producing), 18 hours, read-out: MIC
[16] = Escherichia coli, ATCC2469, 18 h, Escherichia coli ATCC 2469 (CRE, NDM-1-producing), 18 hours, read-out: MIC
[17] = Escherichia coli, ATCC35218, 18 h, Escherichia coli ATCC 35218 (ESBLs-producing), 18 hours, read-out: MIC
[18] = Klebsiella pneumoniae, 18 h, Klebsiella pneumoniae 09-20 (mcr-1), 18 hours, read-out: MIC
[19] = Klebsiella pneumoniae, 18 h, Klebsiella pneumoniae 17-R27 (CRE), 18 hours, read-out: MIC
[20] = Klebsiella pneumoniae, 18 h, Klebsiella pneumoniae 18-8 (ESBLs-producing), 18 hours, read-out: MIC
[21] = Klebsiella pneumoniae, ATCC700603, 18 h, Klebsiella pneumoniae ATCC 700603 (ESBLs-producing), 18 hours, read-out: MIC
[22] = Klebsiella pneumoniae, ATCCBAA2146, 18 h, Klebsiella pneumoniae ATCC BAA-2146 (CRE, NDM-1-producing), 18 hours, read-out: MIC
[23] = ATCC27993, Pantoea agglomerans ATCC 27993, agar dilution, 35°C, 18 hours, read-out: MIC
[24] = ATCC49565, Proteus mirabilis ATCC 49565, agar dilution, 35°C, 18 hours, read-out: MIC
[25] = ATCC29905, Proteus vulgaris ATCC 29905, agar dilution, 35°C, 18 hours, read-out: MIC
[26] = ATCC21074, Serratia marcescens ATCC 21074, agar dilution, 35°C, 18 hours, read-out: MIC
[27] = Enterobacter cloacae CDC1000654 (NDM-1-producing), agar dilution, 35°C, 18 hours, read-out: MIC
[28] = ATCC12022, Shigella flexneri ATCC 12022, 35°C, read-out: MIC
[29] = Klebsiella pneumoniae, ATCCBAA2146, 18 h, Klebsiella pneumoniae ATCC BAA-2146 (CRE, NDM-1-producing), 18 hours
[30] = Pseudomonas aeruginosa PAO1, agar dilution, 35°C, 18 hours, read-out: MIC
[31] = Escherichia coli, 18 h, Escherichia coli 17-R28 (CRE, NDM-1-producing)

Molecule	MIC [1, 12] [µg/mL]	MIC [2, 13] [µg/mL]	MIC [3, 14] [µg/mL]	MIC [3, 15] [µg/mL]	MIC [3, 16] [µg/mL]	MIC [3, 17] [µg/mL]	MIC [4, 18] [µg/mL]	MIC [4, 19] [µg/mL]	MIC [4, 20] [µg/mL]	MIC [4, 21] [µg/mL]	MIC [4, 22] [µg/mL]	MIC [5, 23] [µg/mL]	MIC [6, 24] [µg/mL]	MIC [7, 25] [µg/mL]	MIC [8, 26] [µg/mL]	MIC [9, 27] [µg/mL]	MIC [10, 28] [µg/mL]	MIC [4, 29] [µg/mL]	MIC [11, 30] [µg/mL]	MIC [3, 31] [µg/mL]	also measured
C[C@@H](O)[C@H]1C(=O)N2C(C(=O)O)=C(SCCN=CN)C[C@H]12 [Imipenem]	0.25 (≈ 0.835 µM)	0.25 (≈ 0.835 µM)	0.12 (≈ 0.401 µM)	> 128	8 (≈ 26.7 µM)	0.12 (≈ 0.401 µM)	0.12 (≈ 0.401 µM)	0.12 (≈ 0.401 µM)	0.12 (≈ 0.401 µM)	0.25 (≈ 0.835 µM)	32 (≈ 107 µM)	0.12 (≈ 0.401 µM)	1 (≈ 3.34 µM)	0.25 (≈ 0.835 µM)	0.5 (≈ 1.67 µM)	2 (≈ 6.68 µM)	0.12 (≈ 0.401 µM)				
C[C@H]1COc2c(N3CCN(C)CC3)c(F)cc3c(=O)c(C(=O)O)cn1c23 [Levofloxacin]	≤ 0.03	0.06 (≈ 0.166 µM)	64 (≈ 177 µM)	8 (≈ 22.1 µM)	16 (≈ 44.3 µM)	≤ 0.03	16 (≈ 44.3 µM)	16 (≈ 44.3 µM)	1 (≈ 2.77 µM)	1 (≈ 2.77 µM)		0.06 (≈ 0.166 µM)	0.12 (≈ 0.332 µM)	≤ 0.03	0.25 (≈ 0.692 µM)	64 (≈ 177 µM)	≤ 0.03	> 128	0.5 (≈ 1.38 µM)		
C[C@@H](O)[C@H]1C(=O)N2C(C(=O)O)=C(S[C@@H]3CN[C@H](C(=O)N(C)C)C3)[C@H](C)[C@H]12 [Meropenem]	≤ 0.03	0.06 (≈ 0.156 µM)	≤ 0.03		8 (≈ 20.9 µM)	≤ 0.03	≤ 0.03	0.25 (≈ 0.652 µM)	≤ 0.03	≤ 0.03	32 (≈ 83.4 µM)	≤ 0.03	0.06 (≈ 0.156 µM)	≤ 0.03	0.06 (≈ 0.156 µM)	4 (≈ 10.4 µM)	≤ 0.03		2 (≈ 5.22 µM)	128 (≈ 334 µM)	
CN(C)c1cc(NC(=O)CNC(C)(C)C)c(O)c2c1C[C@H]1C[C@H]3[C@H](N(C)C)C(O)=C(C(N)=O)C(=O)[C@@]3(O)C(O)=C1C2=O [Tigecycline]						0.12 (≈ 0.205 µM)			2 (≈ 3.41 µM)	8 (≈ 13.7 µM)							0.12 (≈ 0.205 µM)	8 (≈ 13.7 µM)		0.12 (≈ 0.205 µM)	MIC ([1]; Citrobacter freundii, ATCC43864, 18 h): 1 µg/mL (≈ 1.71 µM); MIC ([2]; Klebsiella aerogenes, ATCC13048, 18 h): 1 µg/mL (≈ 1.71 µM); MIC ([3]; Escherichia coli, 18 h, Escherichia coli 13-43 (mcr-1)): 1 µg/mL (≈ 1.71 µM); MIC ([3]; Escherichia coli, ATCC2469, 18 h, Escherichia coli ATCC 2469 (CRE, NDM-1-producing), 18 hours): 0.5 µg/mL (≈ 0.854 µM); MIC ([4]; Klebsiella pneumoniae, 18 h, Klebsiella pneumoniae 09-20 (mcr-1)): 2 µg/mL (≈ 3.41 µM); MIC ([4]; Klebsiella pneumoniae, 18 h, Klebsiella pneumoniae 17-R27 (CRE)): 2 µg/mL (≈ 3.41 µM); MIC ([5]; Pantoea agglomerans, ATCC27993, 18 h): 0.5 µg/mL (≈ 0.854 µM); MIC ([6]; Proteus mirabilis, ATCC49565, 18 h): 4 µg/mL (≈ 6.83 µM); MIC ([7]; Proteus vulgaris, ATCC29905, 18 h): 2 µg/mL (≈ 3.41 µM); MIC ([11]; Pseudomonas aeruginosa, PAO1, 18 h): 16 µg/mL (≈ 27.3 µM); MIC ([8]; Serratia marcescens, ATCC21074, 18 h): 2 µg/mL (≈ 3.41 µM); MIC ([9]; Enterobacter cloacae, 18 h): 8 µg/mL (≈ 13.7 µM)
Polymyxin B																					MIC ([1]; Citrobacter freundii ATCC 43864, agar dilution, 35°C, 18 hours): 2 µg/mL; MIC ([2]; Enterobacter aerogenes ATCC 13048, agar dilution, 35°C, 18 hours): 1 µg/mL; MIC ([3]; Escherichia coli 13-43 (mcr-1), 18 hours): 8 µg/mL; MIC ([3]; Escherichia coli 17-R28 (CRE, NDM-1-producing), 18 hours): 0.5 µg/mL; MIC ([3]; Escherichia coli ATCC 2469 (CRE, NDM-1-producing), 18 hours): 1 µg/mL; MIC ([3]; Escherichia coli ATCC 35218 (ESBLs-producing), 18 hours): 0.5 µg/mL; MIC ([4]; Klebsiella pneumoniae 09-20 (mcr-1), 18 hours): 16 µg/mL; MIC ([4]; Klebsiella pneumoniae 17-R27 (CRE), 18 hours): 16 µg/mL; MIC ([4]; Klebsiella pneumoniae 18-8 (ESBLs-producing), 18 hours): 1 µg/mL; MIC ([4]; Klebsiella pneumoniae ATCC 700603 (ESBLs-producing), 18 hours): 1 µg/mL; MIC ([4]; Klebsiella pneumoniae ATCC BAA-2146 (CRE, NDM-1-producing), 18 hours): 1 µg/mL; MIC ([5]; Pantoea agglomerans ATCC 27993, agar dilution, 35°C, 18 hours): 1 µg/mL; MIC ([6]; Proteus mirabilis ATCC 49565, agar dilution, 35°C, 18 hours): >128 µg/mL; MIC ([7]; Proteus vulgaris ATCC 29905, agar dilution, 35°C, 18 hours): >128 µg/mL; MIC ([11]; Pseudomonas aeruginosa PAO1, agar dilution, 35°C, 18 hours): 2 µg/mL; MIC ([8]; Serratia marcescens ATCC 21074, agar dilution, 35°C, 18 hours): >128 µg/mL; MIC ([9]; Enterobacter cloacae CDC1000654 (NDM-1-producing), agar dilution, 35°C, 18 hours): 2 µg/mL; MIC ([10]; Shigella flexneri ATCC 12022, 35°C): 1 µg/mL
